Like-named read-outs stand apart in the source and are kept apart here.
Assays:
Puccinia recondita = assay: Effect on Wheat brown rust (preventive spray test); type: in vivo; conditions: 7 days after inoculation
Phytophthora infestans = type: in vivo; conditions: Tomato late blight, 5 days after inoculation
[1] = system: Psecidoperonospora cubensis; assay: Effect on Cucumber downy mildew (preventive spray test); type: in vivo; conditions: 7 days after inoculation
Pyricularia oryzae = type: in vivo; conditions: Rice blast, 7 days after inoculation
Chochliobolus miyabeanus = assay: Effect on Rice brown spot (preventive spray test); type: in vivo; conditions: 7 days after inoculation
Puccinia recondite = assay: Penetration and translocation in wheat leaves (covered leaf tip, brown rust); type: in vivo; conditions: conc. of active ingredient 200 ppm
[2] = system: Pseudoperonospora cubenis; assay: Penetration and translocation in cucumber leaf (drop on back of leaf, downy mildew); type: in vivo; conditions: 10 μl drop on back of leaf, conc. of active ingredient 200 ppm, disease-free area 5 days after the spraying
Protocol: Four points were marked at random on the first leaf of each cucumber seedling (variety: Shogoin aonaga fushinari) in two-leaf stage in each pot having a diameter of 6 cm. […] The leaf was kept in a greenhouse for one day and then uniformly inoculated with a zoospore suspension of Pseudoperonospora cubenis by means of a spray gun, then left to stand in a high-humidity room at 24° C. for 24 hours, and kept in a greenhouse. The area of the disease-free part 5 days after the spraying was represented in terms of the index.
3: At least 40% of the area of the leaf was free from the disease.
2: 20 to 40% of the area of the leaf was free from the disease.
1: An area larger than the spot of the drop but smaller than 20% of the area of the leaf was free from the disease.
0: Only the spot of the drop was free from the disease.

Rhizoctonia solani = assay: Effect on Rice sheath blight (preventive spray test); conditions: 10 days after inoculation
Protocol: An emulsion of a compound of the present invention prepared in Preparation Example 2 was diluted with water and uniformly sprayed on 5 rice plant seedlings (variety: Koshihikari) in 4.5-leaf stage in each plastic pot having a diameter of 6 cm, with a spray gun. One day after the spraying, the seedlings were bundled at the second sheath with a string. Colonies of Rhizoctonia solani previously cultured in PSA culture medium were bored with a cork borer to obtain pieces having a diameter of 4 mm. The piece was put in the bundle, and kept in a high-humidity room at 25° C. until the examination. Ten days after the inoculation, the degree of the disease was examined, and the preventive rate (effect of inhibiting the disease) was calculated on the basis of the following standard:
Preventive rate=[1-D′/C′]×100
C′: Severity in untreated section
D′: Severity in treated section.

Erysiphe graminis = assay: Effects on Barley powdery mildew (preventive spray test); type: in vivo; conditions: lesions counted seven days after inoculation
Botrytis cinerea = assay: Effect on Cucumber gray mold (cotyledon paper disc test); type: in vivo; conditions: 3 days after inoculation
[3] = conc. of active ingredient 20 ppm
[4] = conc. of active ingredient 100 ppm
[5] = conc. of active ingredient 4 ppm

Compound: CNC(=O)C(=NOC)c1ccccc1COc1ccc2c(c1)OCCC2=NOC [c-5]
- Preventive rate (%) (Puccinia recondita; [3]): 96%
- Preventive rate (%) (Puccinia recondita; [4]): 100%
- Preventive rate (%) (Phytophthora infestans; [3]): 88%
- Preventive rate (%) (Phytophthora infestans; [4]): 94%
- Preventive rate (%) [1, 3]: 100%
- Preventive rate (%) [1, 4]: 100%
- Preventive rate (%) (Pyricularia oryzae; [3]): 97%
- Preventive rate (%) (Pyricularia oryzae; [4]): 99%
- Preventive rate (%) (Chochliobolus miyabeanus; [3]): 35%
- Preventive rate (%) (Chochliobolus miyabeanus; [4]): 100%
- Number of lesions formed within the mark to the tip (Puccinia recondite): 0
- Preventive rate (%) (Puccinia recondite): 100%
- Rate of the translocation perfect preventive conc. (%) (Puccinia recondite): 100%
- Index [2]: 3 (At least 40% of the area of the leaf was free from the disease.)
- Preventive rate (%) (Rhizoctonia solani; [3]): 39%
- Preventive rate (%) (Rhizoctonia solani; [4]): 89%

Compound: CNC(=O)C(=NOC)c1ccccc1COc1ccc2c(c1)CCC2=NOC [e-5]
- Preventive rate (%) (Erysiphe graminis; [3]): 95%
- Preventive rate (%) (Erysiphe graminis; [4]): 100%
- Preventive rate (%) (Puccinia recondita; [3]): 99%
- Preventive rate (%) (Puccinia recondita; [4]): 100%
- Preventive rate (%) (Phytophthora infestans; [3]): 95%
- Preventive rate (%) (Phytophthora infestans; [4]): 98%
- Preventive rate (%) [1, 3]: 100%
- Preventive rate (%) [1, 4]: 100%
- Preventive rate (%) (Pyricularia oryzae; [3]): 97%
- Preventive rate (%) (Pyricularia oryzae; [4]): 100%
- Preventive rate (%) (Chochliobolus miyabeanus; [3]): 84%
- Preventive rate (%) (Chochliobolus miyabeanus; [4]): 90%
- Number of lesions formed within the mark to the tip (Puccinia recondite): 0
- Preventive rate (%) (Puccinia recondite): 100%
- Rate of the translocation perfect preventive conc. (%) (Puccinia recondite): 100%
- Index [2]: 3 (At least 40% of the area of the leaf was free from the disease.)

Compound: CNC(=O)/C(=N/OC)c1ccccc1COc1ccc2c(c1C)OCC2=NOC [a-16]
- Preventive rate (%) (Erysiphe graminis; [3]): 100%
- Preventive rate (%) (Erysiphe graminis; [4]): 100%
- Preventive rate (%) (Puccinia recondita; [5]): 100%
- Preventive rate (%) (Puccinia recondita; [3]): 100%
- Preventive rate (%) (Puccinia recondita; [4]): 100%
- Preventive rate (%) (Phytophthora infestans; [5]): 91%
- Preventive rate (%) (Phytophthora infestans; [3]): 97%
- Preventive rate (%) (Phytophthora infestans; [4]): 100%
- Preventive rate (%) [1, 5]: 100%
- Preventive rate (%) [1, 3]: 100%
- Preventive rate (%) [1, 4]: 100%
- Preventive rate (%) (Pyricularia oryzae; [5]): 86%
- Preventive rate (%) (Pyricularia oryzae; [3]): 89%
- Preventive rate (%) (Pyricularia oryzae; [4]): 96%
- Preventive rate (%) (Chochliobolus miyabeanus; [5]): 75%
- Preventive rate (%) (Chochliobolus miyabeanus; [3]): 95%
- Preventive rate (%) (Chochliobolus miyabeanus; [4]): 98%
- Preventive rate (%) (Botrytis cinerea; [5]): 42%
- Preventive rate (%) (Botrytis cinerea; [3]): 84%
- Preventive rate (%) (Botrytis cinerea; [4]): 87%
- Number of lesions formed within the mark to the tip (Puccinia recondite): 0
- Preventive rate (%) (Puccinia recondite): 100%
- Rate of the translocation perfect preventive conc. (%) (Puccinia recondite): 100%
- Index [2]: 3 (At least 40% of the area of the leaf was free from the disease.)
- Preventive rate (%) (Rhizoctonia solani; [3]): 50%
- Preventive rate (%) (Rhizoctonia solani; [4]): 92%

From patent US6399542B1, “Alkoxyimino-substituted bicyclic compounds compositions containing the same and method of making such compounds” (Agro-Kanesho Co., Ltd., priority 1997, dated 2002)
